Assay results taken from PubChem BioAssay (NCI).
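Assay format: 96-well plates, 48-hour exposure. GI50: concentration for 50% inhibition of growth. TGI is the concentration that stops growth completely.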

Experiments:
Experiment in all cases: growth of human tumour cells (NCI), 48 h
HCT-116 colon = test system: HCT-116 colon
BT-549 breast = test system: BT-549 breast
SF-268 CNS = test system: SF-268 CNS
SK-MEL-28 melanoma = test system: SK-MEL-28 melanoma
A549 NSCLC = test system: A549 NSCLC
U251 CNS = test system: U251 CNS
SR leukemia = test system: SR leukemia
T-47D breast = test system: T-47D breast
MCF7 breast = test system: MCF7 breast
IGROV1 ovarian = test system: IGROV1 ovarian
HOP-62 NSCLC = test system: HOP-62 NSCLC
PC-3 prostate = test system: PC-3 prostate
LOX IMVI melanoma = test system: LOX IMVI melanoma
MDA-MB-435 = test system: MDA-MB-435
MOLT-4 leukemia = test system: MOLT-4 leukemia
HOP-92 NSCLC = test system: HOP-92 NSCLC
SK-MEL-5 melanoma = test system: SK-MEL-5 melanoma
HL-60(TB) leukemia = test system: HL-60(TB) leukemia
SK-MEL-2 melanoma = test system: SK-MEL-2 melanoma
SNB-75 CNS = test system: SNB-75 CNS
EKVX NSCLC = test system: EKVX NSCLC
SNB-19 CNS = test system: SNB-19 CNS
TK-10 renal = test system: TK-10 renal
OVCAR-3 ovarian = test system: OVCAR-3 ovarian
SK-OV-3 ovarian = test system: SK-OV-3 ovarian
SW-620 colon = test system: SW-620 colon
786-0 renal = test system: 786-0 renal
HCT-15 colon = test system: HCT-15 colon
OVCAR-8 ovarian = test system: OVCAR-8 ovarian

Q: `CSc1ccc(/C(=N/N=C(N)N)c2ccc(F)cc2)cc1` was tested. Which GI50 (HCT-116 colon) did it give?
A: The GI50 was 0.346 µM.

Q: What about the TGI (HCT-116 colon) of the same compound?
A: The TGI was 4.58 µM.

Q: What about the GI50 (BT-549 breast) of the same compound?
A: Its GI50 is 5.6 µM.

Q: What about the TGI (BT-549 breast) of the same compound?
A: The TGI was 17.1 µM.

Q: What about the GI50 (SF-268 CNS) of the same compound?
A: The GI50 was 0.787 µM.

Q: And the TGI (SF-268 CNS)?
A: The TGI was 11.6 µM.

Q: And the GI50 (SK-MEL-28 melanoma)?
A: The GI50 was 1.41 µM.

Q: What about the TGI (SK-MEL-28 melanoma) of the same compound?
A: The TGI was 11.6 µM.

Q: What about the GI50 (A549 NSCLC) of the same compound?
A: Its GI50 is 0.48 µM.

Q: And the TGI (A549 NSCLC)?
A: The TGI was 10.6 µM.

Q: And the GI50 (U251 CNS)?
A: Its GI50 is 0.415 µM.

Q: What about the TGI (U251 CNS) of the same compound?
A: Its TGI is 7.13 µM.

Q: And the GI50 (SR leukemia)?
A: The GI50 was 0.36 µM.

Q: What about the TGI (SR leukemia) of the same compound?
A: Its TGI is 1.8 µM.

Q: And the GI50 (T-47D breast)?
A: The GI50 was 0.56 µM.

Q: What about the TGI (T-47D breast) of the same compound?
A: Its TGI is 11.7 µM.

Q: And the GI50 (MCF7 breast)?
A: Its GI50 is 0.358 µM.

Q: What about the TGI (MCF7 breast) of the same compound?
A: The TGI was 3.69 µM.

Q: And the GI50 (IGROV1 ovarian)?
A: Its GI50 is 0.421 µM.

Q: What about the TGI (IGROV1 ovarian) of the same compound?
A: Its TGI is 3.47 µM.

Q: And the GI50 (HOP-62 NSCLC)?
A: Its GI50 is 0.755 µM.

Q: And the TGI (HOP-62 NSCLC)?
A: Its TGI is 9.2 µM.

Q: And the GI50 (PC-3 prostate)?
A: The GI50 was 0.466 µM.

Q: And the TGI (PC-3 prostate)?
A: The TGI was 11.4 µM.

Q: And the GI50 (LOX IMVI melanoma)?
A: Its GI50 is 0.324 µM.

Q: And the TGI (LOX IMVI melanoma)?
A: The TGI was 1.55 µM.

Q: What about the GI50 (MDA-MB-435) of the same compound?
A: The GI50 was 0.23 µM.

Q: And the TGI (MDA-MB-435)?
A: Its TGI is 0.551 µM.

Q: What about the GI50 (MOLT-4 leukemia) of the same compound?
A: The GI50 was 0.533 µM.

Q: And the TGI (MOLT-4 leukemia)?
A: Its TGI is 10.9 µM.

Q: And the GI50 (HOP-92 NSCLC)?
A: The GI50 was 0.797 µM.

Q: And the TGI (HOP-92 NSCLC)?
A: The TGI was 6.11 µM.

Q: And the GI50 (SK-MEL-5 melanoma)?
A: The GI50 was 0.393 µM.

Q: And the TGI (SK-MEL-5 melanoma)?
A: Its TGI is 1.49 µM.

Q: And the GI50 (HL-60(TB) leukemia)?
A: The GI50 was 0.273 µM.

Q: And the TGI (HL-60(TB) leukemia)?
A: Its TGI is 0.873 µM.

Q: What about the GI50 (SK-MEL-2 melanoma) of the same compound?
A: Its GI50 is 2.67 µM.

Q: And the TGI (SK-MEL-2 melanoma)?
A: Its TGI is 17.5 µM.

Q: And the GI50 (SNB-75 CNS)?
A: Its GI50 is 0.342 µM.

Q: And the TGI (SNB-75 CNS)?
A: The TGI was 5.56 µM.

Q: What about the GI50 (EKVX NSCLC) of the same compound?
A: Its GI50 is 0.6 µM.

Q: What about the TGI (EKVX NSCLC) of the same compound?
A: The TGI was 13.3 µM.

Q: And the GI50 (SNB-19 CNS)?
A: The GI50 was 0.424 µM.

Q: And the TGI (SNB-19 CNS)?
A: The TGI was 12.5 µM.

Q: And the GI50 (TK-10 renal)?
A: Its GI50 is 2.92 µM.

Q: And the TGI (TK-10 renal)?
A: Its TGI is 17.2 µM.

Q: And the GI50 (OVCAR-3 ovarian)?
A: Its GI50 is 0.406 µM.

Q: What about the TGI (OVCAR-3 ovarian) of the same compound?
A: The TGI was 9.68 µM.

Q: What about the GI50 (SK-OV-3 ovarian) of the same compound?
A: The GI50 was 0.78 µM.

Q: And the TGI (SK-OV-3 ovarian)?
A: The TGI was 15.5 µM.

Q: And the GI50 (SW-620 colon)?
A: The GI50 was 0.457 µM.

Q: And the TGI (SW-620 colon)?
A: Its TGI is 9.76 µM.

Q: What about the GI50 (786-0 renal) of the same compound?
A: The GI50 was 0.802 µM.

Q: What about the TGI (786-0 renal) of the same compound?
A: Its TGI is 12.5 µM.

Q: What about the GI50 (HCT-15 colon) of the same compound?
A: Its GI50 is 0.341 µM.

Q: And the TGI (HCT-15 colon)?
A: The TGI was 9.85 µM.

Q: And the GI50 (OVCAR-8 ovarian)?
A: Its GI50 is 1.29 µM.

Q: What about the TGI (OVCAR-8 ovarian) of the same compound?
A: Its TGI is 14.9 µM.
